Experiments:
Experiment in all cases: relative viability (nuclei count vs DMSO), 5 days (fraction); higher = more cells survive
[1] = compound: C1CSC2=C(C(=O)N1)SC3=C2C=C(C=C3)O [kb NB 142-70] + CCNC(=O)c1noc(-c2cc(C(C)C)c(O)cc2O)c1-c1ccc(CN2CCOCC2)cc1 [Luminespib] (partner 0.01 µM)
How it was run: (§1)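 Each reported value is a median over duplicate plates. It expresses relative viability: treated-well nuclei count divided by vehicle-well nuclei count. Lung cancer cell lines in 1536-well plates were dosed by pin tool a day after seeding, alone with one drug or with a fixed anchor-drug dose plus five library-drug doses (not always all listed) in √10 steps, and nuclei were counted after 5 days.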

[2] = compound: C1CSC2=C(C(=O)N1)SC3=C2C=C(C=C3)O [kb NB 142-70] + COc1cc2c(Oc3ccc(NC(=O)C4(C(=O)Nc5ccc(F)cc5)CC4)cc3F)ccnc2cc1OCCCN1CCOCC1 [Foretinib] (partner 0.25 µM)
How it was run: as §1

[3] = compound: C1CSC2=C(C(=O)N1)SC3=C2C=C(C=C3)O [kb NB 142-70] + CS(=O)(=O)N1CCN(Cc2cc3nc(-c4cccc5[nH]ncc45)nc(N4CCOCC4)c3s2)CC1 [Pictilisib] (partner 1 µM)
How it was run: as §1

[4] = compound: NCC(=O)Nc1ccc(-n2nc(C(F)(F)F)cc2-c2ccc3c(ccc4ccccc43)c2)cc1 + C[C@]1(O)C[C@@H](c2nc(-c3ccc4ccc(-c5ccccc5)nc4c3)c3c(N)nccn32)C1 [Linsitinib] (partner 1 µM)
How it was run: as §1

[5] = compound: NCC(=O)Nc1ccc(-n2nc(C(F)(F)F)cc2-c2ccc3c(ccc4ccccc43)c2)cc1 + Cc1cc(Nc2cc(N3CCN(C)CC3)nc(Sc3ccc(NC(=O)C4CC4)cc3)n2)n[nH]1 [Tozasertib] (partner 0.1 µM)
How it was run: as §1

Row | Cell Line | relative viability ([1]; first compound 0.1 µM) | relative viability ([1]; first compound 1 µM) | relative viability ([1]; first compound 3.162 µM) | relative viability ([2]; first compound 0.1 µM) | relative viability ([2]; first compound 1 µM) | relative viability ([2]; first compound 3.162 µM) | relative viability ([3]; first compound 0.1 µM) | relative viability ([3]; first compound 1 µM) | relative viability ([3]; first compound 3.162 µM) | relative viability ([4]; first compound 0.02 µM) | relative viability ([4]; first compound 0.06325 µM) | relative viability ([4]; first compound 0.2 µM) | relative viability ([4]; first compound 0.6325 µM) | relative viability ([4]; first compound 2 µM) | relative viability ([5]; first compound 0.02 µM) | relative viability ([5]; first compound 0.06325 µM) | relative viability ([5]; first compound 0.2 µM) | relative viability ([5]; first compound 0.6325 µM) | relative viability ([5]; first compound 2 µM)
1 | H3255 | 0.881 | 0.845 | 1.12 | 0.742 | 0.946 | 1.05 | 0.469 | 0.45 | 0.437 | 0.916 | 0.945 | 0.958 | 0.961 | 0.919 | 0.657 | 0.511 | 0.749 | 0.686 | 0.713
2 | NCI-H1993 | 1.03 | 0.858 | 0.673 | 0.739 | 0.762 | 0.744 | 0.917 | 0.787 | 0.649 | 0.81 | 0.767 | 0.718 | 0.843 | 0.724 | 0.54 | 0.582 | 0.572 | 0.529 | 0.561
3 | NCI-H1734 | 0.185 | 0.205 | 0.171 | 0.873 | 0.738 | 0.456 | 0.429 | 0.432 | 0.363 | 0.916 | 0.856 | 0.988 | 0.823 | 0.925 | 0.28 | 0.271 | 0.276 | 0.286 | 0.254
4 | HOP-62 | 0.971 | 0.884 | 1.06 | 1.19 | 1.18 | 1.02 | 0.736 | 0.606 | 0.73 | 1.14 | 0.901 | 0.854 | 1.03 | 1.05 | 0.364 | 0.409 | 0.37 | 0.409 | 0.365
5 | LOU-NH91 | 0.312 | 0.316 | 0.286 | 0.898 | 0.889 | 0.829 | 0.526 | 0.505 | 0.41 | 0.984 | 1.04 | 0.891 | 0.959 | 1.09 | 0.621 | 0.716 | 0.649 | 0.663 | 0.797
6 | NCI-H2228 | 0.176 | 0.13 | 0.119 | 0.956 | 0.939 | 0.543 | 0.494 | 0.225 | 0.183 | 0.872 | 0.676 | 0.707 | 0.603 | 0.79 | 0.217 | 0.265 | 0.308 | 0.27 | 0.229
7 | PC-14 | 0.149 | 0.173 | 0.13 | 0.936 | 0.919 | 1.07 | 0.679 | 0.795 | 0.58 | 1.07 | 0.917 | 1.05 | 0.936 | 0.993 | 0.634 | 0.606 | 0.543 | 0.517 | 0.651
8 | NCI-H1437 | 1.12 | 1.1 | 0.932 | 1.28 | 1.3 | 1.22 | 0.406 | 0.459 | 0.37 | 0.944 | 1.05 | 1.07 | 1.1 | 1.02 | 0.407 | 0.383 | 0.413 | 0.402 | 0.387
9 | NCI-H460 | 0.0325 | 0.0315 | 0.0216 | 0.951 | 1.07 | 0.985 | 0.363 | 0.323 | 0.274 | 0.823 | 0.757 | 0.855 | 0.717 | 0.738 | 0.397 | 0.591 | 0.485 | 0.47 | 0.394
10 | NCI-H1666 | 0.898 | 0.985 | 0.81 | 0.993 | 1.02 | 0.814 | 0.405 | 0.346 | 0.204 | 0.703 | 0.993 | 0.861 | 0.912 | 0.844 | 0.579 | 0.63 | 0.578 | 0.584 | 0.572
11 | NCI-H1651 | 0.926 | 0.856 | 0.354 | 0.802 | 0.683 | 0.618 | 0.563 | 0.497 | 0.344 | 0.945 | 1.05 | 0.963 | 1.01 | 1.01 | 0.703 | 0.694 | 0.906 | 0.588 | 0.676
12 | NCI-H1755 | 0.49 | 0.45 | 0.557 | 0.928 | 0.867 | 0.944 | 0.462 | 0.504 | 0.431 | 1.08 | 1.01 | 0.98 | 0.991 | 0.995 | 0.626 | 0.596 | 0.6 | 0.591 | 0.555
13 | NCI-H661 | 0.905 | 0.845 | 0.805 | 0.996 | 1.02 | 1.01 | 0.496 | 0.343 | 0.351 | 0.573 | 0.584 | 0.582 | 0.496 | 0.566 | 0.37 | 0.343 | 0.356 | 0.362 | 0.341
14 | HARA | 0.625 | 0.769 | 0.456 | 0.771 | 0.521 | 0.867 | 0.476 | 0.372 | 0.381 | 0.935 | 1.01 | 1.18 | 0.965 | 0.935 | 0.0731 | 0.108 | 0.12 | 0.0964 | 0.0949
15 | NCI-H596 | 0.945 | 1.11 | 0.876 | 0.887 | 0.866 | 0.89 | 0.399 | 0.351 | 0.352 | 1.05 | 1.06 | 0.989 | 1.02 | 1.04 | 1 | 0.911 | 1.02 | 0.925 | 0.903
16 | NCI-H23 | 0.231 | 0.207 | 0.201 | 1.06 | 0.819 | 0.642 | 0.517 | 0.42 | 0.293 | 0.484 | 0.582 | 0.662 | 0.476 | 0.552 | 0.332 | 0.453 | 0.314 | 0.358 | 0.369
17 | LCLC-97TM1 | 0.72 | 0.76 | 0.692 | 1.01 | 0.883 | 0.606 | 0.216 | 0.232 | 0.236 | 0.146 | 0.185 | – | 0.198 | 0.183 | 0.228 | 0.26 | 0.234 | 0.206 | 0.206
18 | EPLC-272H | 0.361 | 0.216 | 0.157 | 0.696 | 0.725 | 0.255 | 0.349 | 0.325 | 0.237 | 1.38 | 1.06 | 1.18 | 1.22 | 1.18 | 0.299 | 0.225 | 0.365 | 0.313 | 0.234
19 | NCI-H1915 | 0.797 | 0.897 | 0.489 | 1.1 | 1.12 | 0.82 | 1.01 | 0.889 | 0.905 | 1.05 | 1.07 | 1.17 | 1.09 | 1.1 | 0.378 | 0.465 | 0.426 | 0.418 | 0.407
20 | NCI-H2405 | 0.733 | 0.728 | 0.523 | 1.05 | 1.05 | 0.776 | 0.378 | 0.379 | 0.382 | 0.91 | 1.01 | 0.923 | 0.921 | 0.971 | 0.745 | 0.853 | 0.779 | 0.733 | 0.868
21 | NCI-H322M | 0.767 | 0.947 | 0.693 | 0.891 | 1.04 | 1.04 | 0.54 | 0.561 | 0.504 | 1.04 | 0.916 | 0.924 | 0.884 | 0.976 | 0.54 | 0.461 | 0.517 | 0.491 | 0.517
22 | NCI-H1395 | 0.79 | 0.69 | 0.464 | 0.942 | 1.04 | 0.946 | 0.901 | 0.687 | 0.6 | 0.997 | 0.986 | 1.15 | 1.06 | 1.18 | 0.724 | 0.75 | 0.778 | 0.794 | 0.706
23 | NCI-H358 | 0.278 | 0.152 | 0.148 | 0.57 | 0.521 | 0.101 | 0.35 | 0.3 | 0.189 | 0.807 | 0.8 | 0.72 | 0.868 | 0.737 | 0.0971 | 0.102 | 0.12 | 0.0969 | 0.0967
24 | NCI-H838 | 0.374 | 0.339 | 0.218 | 1.02 | 1.06 | 1.04 | 0.444 | 0.447 | 0.424 | 1.03 | 1.01 | 1.1 | 0.925 | 0.881 | 0.264 | 0.35 | 0.299 | 0.285 | 0.291
25 | CAL-12T | 0.56 | 0.611 | 0.25 | 1.03 | 1.18 | 0.837 | 0.563 | 0.451 | 0.344 | 0.718 | 0.836 | 0.865 | 0.775 | 0.819 | 0.304 | 0.368 | 0.344 | 0.334 | 0.277

From the supplement of paper PMC10307832
